Measured values as given in article PMC6986272 (Frontiers in Microbiology, 2020).

Legend:
[1] = biological target: T1, Brucella melitensis DAPDC (diaminopimelate decarboxylase) (Brucella melitensis, UniProt Q8YJJ9); assay: biochemical; settings: read-out: Inhibitory rate (%)
T1 construct: gene lysA

[2] = biological target: T1, Brucella melitensis DAPDC (diaminopimelate decarboxylase); settings: 200 mM Tris-HCl pH 8.0, 4 mM α-ketoglutarate, 600 μM NADH, 0.1 mM PLP, excess SDH, DAP 0-20 mM, room temperature
[3] = biological target: T2, Saccharomyces cerevisiae saccharopine dehydrogenase (SDH) (Saccharomyces cerevisiae, UniProt P38998); assay: NADH oxidation, A340 endpoint; format: biochemical; settings: 200 mM Tris pH 8.0, 600 μM NADH, α-ketoglutarate, room temperature, 15 min
T2 construct: gene LYS1; SDH coding gene in pET30a, Ni-NTA purified, expressed in E. coli BL21(DE3), about 41 kDa
T2 sequence (P38998 2-373): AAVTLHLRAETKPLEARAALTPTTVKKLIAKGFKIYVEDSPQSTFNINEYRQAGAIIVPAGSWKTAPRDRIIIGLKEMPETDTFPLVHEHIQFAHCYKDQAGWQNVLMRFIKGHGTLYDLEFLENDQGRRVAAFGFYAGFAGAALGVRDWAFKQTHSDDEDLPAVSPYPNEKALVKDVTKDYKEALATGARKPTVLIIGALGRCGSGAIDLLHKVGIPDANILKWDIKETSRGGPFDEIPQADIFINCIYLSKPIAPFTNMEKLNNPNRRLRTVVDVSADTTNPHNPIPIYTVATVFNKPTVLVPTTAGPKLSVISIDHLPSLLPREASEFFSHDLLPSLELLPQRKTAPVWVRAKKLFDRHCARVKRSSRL

[4] = biological target: T1, Brucella melitensis DAPDC (diaminopimelate decarboxylase); settings: 40 µM

T1 sequence (Q8YJJ9 1-421): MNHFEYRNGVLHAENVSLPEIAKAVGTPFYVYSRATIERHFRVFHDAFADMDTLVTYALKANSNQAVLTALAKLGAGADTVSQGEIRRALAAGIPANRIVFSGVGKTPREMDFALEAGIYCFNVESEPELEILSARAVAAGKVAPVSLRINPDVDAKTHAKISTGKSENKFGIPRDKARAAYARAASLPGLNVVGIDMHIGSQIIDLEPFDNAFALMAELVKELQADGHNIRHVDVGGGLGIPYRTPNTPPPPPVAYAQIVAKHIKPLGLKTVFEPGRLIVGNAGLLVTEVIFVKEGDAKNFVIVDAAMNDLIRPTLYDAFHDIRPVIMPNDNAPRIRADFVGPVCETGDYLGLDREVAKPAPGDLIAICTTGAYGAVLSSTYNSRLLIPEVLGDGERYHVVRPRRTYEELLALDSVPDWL

Row | Compound | inhibition at 40 µM [1] | also measured
1 | CCN(CCO)CCCC(C)Nc1ccnc2cc(Cl)ccc12 (racemic) [SID6, S4430] | 56.1% | 
2 | CC(NC(C)(C)C)C(=O)c1cccc(Cl)c1 (racemic) [SID13, S2452] | 47.7% | 
3 | NC(CCCC(N)C(=O)O)C(=O)O (stereo not drawn) [DAP] |  | DAPDC-SDH coupled assay, NADH A340 endpoint [2]: hyperbolic behavior of DAPDC activity as a function of DAP concentration
4 | NCCCC[C@H](N)C(=O)O [L-lysine] |  | NADH oxidation, A340 endpoint [3]: Activity of SDH as a function of the concentration of L-lysine
5 | COc1cc(C2Oc3ccc(C4Oc5cc(O)cc(O)c5C(=O)C4O)cc3OC2CO)ccc1O (stereo not drawn) [SID1, S2357] | 70.3% | 
6 | Nc1nc(=S)c2[nH]cnc2[nH]1 [SID2, S1774] | 68.7% | 
7 | Cc1nc(Nc2ncc(C(=O)Nc3c(C)cccc3Cl)s2)cc(N2CCN(CCO)CC2)n1 [SID3, dasatinib monohydrate] | 67.1% | 
8 | Cc1cccn2c(=O)c(-c3nn[nH]n3)cnc12 [SID5, S4008] | 63.1% | 
9 | C[C@H]1COc2c(N3CCN(C)CC3)c(F)cc3c(=O)c(C(=O)O)cn1c23 [SID7, levofloxacin] | 55.3% | 
10 | O.O.O=C([O-])CCNC(=O)c1ccc(N=Nc2ccc([O-])c(C(=O)O)c2)cc1.[Na+].[Na+] [SID8, S3745] |  | Inhibitory rate (%) [4]: 54.83%
11 | CC(C)(C)C(=O)Oc1ccc(S(=O)(=O)Nc2ccccc2C(=O)NCC(=O)[O-])cc1.O.O.O.O.[Na+] [SID9, S4666] |  | Inhibitory rate (%) [4]: 52.88%
12 | CC(=O)c1c(C)c2cnc(Nc3ccc(N4CCNCC4)cn3)nc2n(C2CCCC2)c1=O [SID10, S1579] | 52.1% | 
13 | CO[C@H]1/C=C/O[C@@]2(C)Oc3c(C)c(O)c4c(O)c(c(/C=N/N5CCN(C)CC5)c(O)c4c3C2=O)NC(=O)/C(C)=C\C=C\[C@H](C)[C@H](O)[C@@H](C)[C@@H](O)[C@@H](C)[C@H](OC(C)=O)[C@@H]1C [SID11, rifampin] | 51.5% | 
14 | CCC(=O)c1c(O)cc(O)cc1O [SID12, S4249] | 49.2% | 
15 | CC(C)Nc1cc(-c2c[nH]c(C(=O)N[C@H](CO)c3cccc(Cl)c3)c2)c(Cl)cn1 [SID14, ulixertinib] | 47.3% | 
16 | COc1ccc(-c2nc3ccc(C4=NNC(=O)CC4C)cc3[nH]2)cc1 (stereo not drawn) [SID15, pimobendan] | 46.8% | 
17 | CC1COc2c(N3CCN(C)CC3)c(F)cc3c(=O)c(C(=O)O)cn1c23 (stereo not drawn) [SID16, S1940] | 46.7% | 
18 | Cc1c(Cl)cccc1Nc1ccccc1C(=O)O [SID20, tolfenamic acid] | 44% | 
